Data reported in patent publication US20240158446A1, “CYCLIC COMPOUND HAVING SELECTIVE INHIBITORY ACTION ON KRAS OVER HRAS AND NRAS” (CHUGAI SEIYAKU KABUSHIKI KAISHA, priority 2021, published 2024).
Where two headings read alike, the source gives them in different places. Where a SMILES comes first, the peptide text is derived from it. Bridges are numbered along the chain shown (N, C = ends). [ ]: non-standard residue; d: D form. The star is where a group is joined. hPhe(3-Cl-4-CF3) = N[C@@H](CCc1ccc(C(F)(F)F)c(Cl)c1)C(=O)O; NPrPhe(4-CF3) = CCCN[C@@H](Cc1ccc(C(F)(F)F)cc1)C(=O)O; NMeGly(cPent) = CN[C@H](C(=O)O)C1CCCC1; Pro(4,4-F2) = O=C(O)[C@@H]1CC(F)(F)CN1; NMeD = CN[C@@H](CC(=O)O)C(=O)O; NMeL = CN[C@@H](CC(C)C)C(=O)O; Morpholide = C1CN(*)CCO1; Ac5c = NC1(C(=O)O)CCCC1; Aze = O=C(O)[C@@H]1CCN1; Ac4c = NC1(C(=O)O)CCC1; Sar = CNCC(=O)O

What was measured:
[1] = molecular target: GDP-bound HRAS wild-type protein (Homo sapiens, UniProt P01112); assay: Binding to HRAS by surface plasmon resonance (SPR), Single Cycle Kinetics; details: for HRAS/KRAS (ratio of KD value for HRAS to KD value for KRAS) / HRAS/KRAS (ratio of KD value with respect to HRAS to KD value with respect to KRAS): GDP-bound HRAS wild-type protein vs GDP-bound KRAS wild-type protein
Chain of GDP-bound HRAS wild-type protein (P01112 whole entry): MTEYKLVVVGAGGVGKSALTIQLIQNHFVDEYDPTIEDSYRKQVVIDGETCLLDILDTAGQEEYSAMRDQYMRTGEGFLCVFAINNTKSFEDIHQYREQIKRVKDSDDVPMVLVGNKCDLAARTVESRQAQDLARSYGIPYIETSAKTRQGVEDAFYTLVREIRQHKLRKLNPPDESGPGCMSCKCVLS

[2] = system: human lung cancer strain NCI-H441;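 note: cell proliferation inhibition after four days measured by CellTiter-Glo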
[3] = molecular target: GDP-bound NRAS wild-type protein (Homo sapiens, UniProt P01111); assay: Binding to NRAS by surface plasmon resonance (SPR), Single Cycle Kinetics; details: for NRAS/KRAS (ratio of KD value for NRAS to KD value for KRAS) / NRAS/KRAS (ratio of KD value with respect to NRAS to KD value with respect to KRAS): GDP-bound NRAS wild-type protein vs GDP-bound KRAS wild-type protein
Chain of GDP-bound NRAS wild-type protein (P01111 whole entry): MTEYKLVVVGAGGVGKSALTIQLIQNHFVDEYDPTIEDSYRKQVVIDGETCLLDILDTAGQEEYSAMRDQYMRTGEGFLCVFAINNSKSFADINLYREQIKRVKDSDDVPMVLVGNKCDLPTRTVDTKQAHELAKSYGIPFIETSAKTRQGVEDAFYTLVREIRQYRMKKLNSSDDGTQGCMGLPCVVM

Compound	IC50 [2]	HRAS/KRAS (ratio of KD value for HRAS to KD value for KRAS) ([1]; SPR)	NRAS/KRAS (ratio of KD value for NRAS to KD value for KRAS) ([3]; SPR)	other results
CCCN1C(=O)CN(C)C(=O)CN(C)C(=O)[C@H]([C@@H](C)CC)NC(=O)[C@@H]2CCCCCCC[C@@H](NC(=O)[C@@H]3C[C@@H](OCC)CN3C(=O)[C@H](CCc3cc(F)c(C(F)(F)F)c(F)c3)NC(=O)CN(C)C(=O)[C@@H]1Cc1ccc(C(F)(F)F)cc1)C(=O)N(C)[C@@H](C1CCCC1)C(=O)N(C)[C@H](C(=O)N(C)C)CC(=O)N2C [PP0925]	91 nM	B (a compound having 3 or more and less than 10 is denoted as B)	A (a compound having 10 or more and less than 20 is denoted as A)	
CC[C@H](C)[C@@H]1NC(=O)[C@H](CC(C)C)N(C)C(=O)C[C@@H](C(=O)N(C)C)N(C)C(=O)[C@H](C2CCCC2)N(C)C(=O)C2(CCCC2)NC(=O)[C@@H]2CCCN2C(=O)[C@H](CCc2ccc(C(F)(F)F)c(Cl)c2)NC(=O)CN(C)C(=O)[C@H](Cc2ccc(C)cc2)N2CC=C(C)C[C@@H](C2=O)N(C)C(=O)CN(C)C1=O [PP0620]	38.4 nM			HRAS/KRAS (ratio of KD value with respect to HRAS to KD value with respect to KRAS) ([1]; SPR): C (A compound having a KD ratio of 0.1 or more and less than 3 is denoted as C); NRAS/KRAS (ratio of KD value with respect to NRAS to KD value with respect to KRAS) ([3]; SPR): C (A compound having a KD ratio of 0.1 or more and less than 3 is denoted as C)
CCC[C@H]1C(=O)N[C@@H]([C@@H](C)CC)C(=O)N(C2CC2)CC(=O)N(C)[C@H]2C/C=C\CCN(C2=O)[C@@H](Cc2ccc(C)cc2)C(=O)N(C)CC(=O)N[C@@H](CCc2cc(F)c(C(F)(F)F)c(F)c2)C(=O)N2C[C@H](OCC)C[C@H]2C(=O)N(C)C2(CCC2)C(=O)N(C)[C@@H](C2CCCC2)C(=O)N(C)[C@H](C(=O)N2CCCCC2)CC(=O)N1C [PP3111, (2S,8S,12R,14S,20S,23S,27S,30S,36S,38Z)-20-cyclopentyl-32-cyclopropyl-8-[2-[3,5-difluoro-4-(trifluoromethyl)phenyl]ethyl]-12-ethoxy-4,16,19,22,26,35-hexamethyl-30-[(1S)-1-methylpropyl]-23-(piperidine-1-carbonyl)-27-propyl-2-(p-tolylmethyl)spiro[1,4,7,1016192226293235-undecazatricyclo[34.5.1.0^10,14]dotetracont-38-ene-17,1′-cyclobutane]-3,6,9,15,18,21,25,28,31,34,42-undecone]		A (a compound having 10 or more and less than 20 is denoted as A)	A (a compound having 10 or more and less than 20 is denoted as A)	ratio of the KD value with respect to GDP-bound HRAS wild-type protein to the KD value with respect to KRAS ([1]; SPR, KD(HRAS)/KD(KRAS)): A (a compound having 10 or more and less than 20 is denoted as A); IC50 ([2]; read-out: NCI-H441 cell proliferation inhibitory activity, 50% proliferation inhibitory concentration (IC50 value), NCI-H441, four days, CellTiter-Glo): 17.8 nM; ratio of the KD value with respect to GDP-bound NRAS wild-type protein to the KD value with respect to KRAS ([3]; SPR, KD(NRAS)/KD(KRAS)): A (a compound having 10 or more and less than 20 is denoted as A)
CC[C@H](C)[C@@H]1NC(=O)[C@H](CC(C)C)N(C)C(=O)C[C@@H](C(=O)N2CCOCC2)N(C)C(=O)[C@H](C2CCCC2)N(C)C(=O)C2(CCC2)NC(=O)[C@@H]2[C@H]3C[C@H]3CN2C(=O)[C@H](CCc2cc(F)c(C(F)(F)F)c(F)c2)NC(=O)CN(C)C(=O)[C@H](Cc2ccc(C(F)(F)F)cc2)N2CCCCC[C@@H](C2=O)N(C)C(=O)CN(C)C1=O [PP0819]	75.7 nM	B (a compound having 3 or more and less than 10 is denoted as B)	A (a compound having 10 or more and less than 20 is denoted as A)	

More lines, main results first:

IC50 [2]	Compound	HRAS/KRAS (ratio of KD value for HRAS to KD value for KRAS) ([1]; SPR)	NRAS/KRAS (ratio of KD value for NRAS to KD value for KRAS) ([3]; SPR)	other results
9.9 nM	CCCN1C(=O)CN(C)C(=O)[C@@H]2CCN2C(=O)[C@H]([C@@H](C)CC)NC(=O)[C@H](CC(C)C)N(C)C(=O)C[C@@H](C(=O)N(C)C)N(C)C(=O)[C@H](C2CCCC2)N(C)C(=O)C2(CCCC2)NC(=O)[C@@H]2CC(F)(F)CN2C(=O)[C@H](CCc2ccc(C(F)(F)F)c(Cl)c2)NC(=O)CN(C)C(=O)[C@@H]1Cc1ccc(C(F)(F)F)cc1 [PP0431] ([NMeL]I[Aze][Sar][NPrPhe(4-CF3)][Sar][hPhe(3-Cl-4-CF3)][Pro(4,4-F2)][Ac5c][NMeGly(cPent)][NMeD]-NMe2; lactam N-11)			HRAS/KRAS (ratio of KD value with respect to HRAS to KD value with respect to KRAS) ([1]; SPR): C (A compound having a KD ratio of 0.1 or more and less than 3 is denoted as C); NRAS/KRAS (ratio of KD value with respect to NRAS to KD value with respect to KRAS) ([3]; SPR): B (a compound having 3 or more and less than 10 is denoted as B)
5.8 nM	CCC[C@H]1C(=O)N[C@@H]([C@@H](C)CC)C(=O)N(C)CC(=O)N(C)[C@H]2C/C=C\CCN(C2=O)[C@@H](Cc2ccc(C(F)(F)F)cc2)C(=O)N(C)CC(=O)N[C@@H](CCc2cc(F)c(C(F)(F)F)c(F)c2)C(=O)N2C[C@H](OCC)C[C@H]2C(=O)NC2(CC(C)(C)C2)C(=O)N(C)[C@@H](CC(C)(C)C)C(=O)N(C)C(C(=O)N(C)C)CC(=O)N1C (some centres unmarked) [PP2730]			HRAS/KRAS (ratio of KD value with respect to GDP-bound HRAS wild-type protein to KD value with respect to KRAS) ([1]; SPR KD ratio HRAS/KRAS, class symbols): A (a compound having 10 or more and less than 20 is denoted as A); NRAS/KRAS (ratio of KD value with respect to GDP-bound NRAS wild-type protein to KD value with respect to KRAS) ([3]; SPR KD ratio NRAS/KRAS, class symbols): A (a compound having 10 or more and less than 20 is denoted as A)
21.7 nM	CCCN1C(=O)CN(C)C(=O)[C@@H]2CCN2C(=O)[C@H]([C@@H](C)CC)NC(=O)[C@H](CC(C)C)N(C)C(=O)C[C@@H](C(=O)N2CCOCC2)N(C)C(=O)[C@H](C2CCCC2)N(C)C(=O)C2(CCC2)NC(=O)[C@@H]2CC(F)(F)CN2C(=O)[C@H](CCc2ccc(C(F)(F)F)c(Cl)c2)NC(=O)CN(C)C(=O)[C@@H]1Cc1ccc(C(F)(F)F)cc1 [PP0404] ([NMeL]I[Aze][Sar][NPrPhe(4-CF3)][Sar][hPhe(3-Cl-4-CF3)][Pro(4,4-F2)][Ac4c][NMeGly(cPent)][NMeD]-Morpholide; lactam N-11)	C (A compound having a KD ratio of 0.1 or more and less than 3 is denoted as C)	B (a compound having 3 or more and less than 10 is denoted as B)	
